Assay results published in US10357486B2, “Treatment of cognitive impairment with PDE4 inhibitor” (Universiteit Maastricht, priority 2013, dated 2019).
“Also recorded” adds a separate entry of the source. Marks after values point to notes of the source that are not given here.

Columns and labels:
[1] = system: spatial memory in male C57BL/6NCrl mice; test: Object Location Task (OLT), 24-hour retention interval; type: in vivo; conditions: for d2 index, discrimination index between the new and familiar objects for T2: given 3 hours after T1, T2 after 24 h, mean (SEM)
Text: The objective of this study was to evaluate the cognitive improvement effects of Roflumilast on spatial memory employing Object Location Task (OLT) in male C57BL/6NCrl mice. Roflumilast was compared with data of the already established PDE4 inhibitor Rolipram in the same model.
Maintenance of Animals Twenty-four 7 month-old male C57BL/6NCrl mice (Charles River, L'Arbresle, France) were used (average body weights: 27.6 g). The animals were kept under a 12/12-hour light/dark cycle (lights on from 07.00 pm to 07.00 am) with free access to food and water. All testing was done between 09.00 am and maximally 06.00 pm.
Preparation of Compounds for Administration Both rolipram (Sigma-Aldrich St. Louis, USA; MW 275.34) and roflumilast (Biocrea, Radebeul, Germany; MW 403.21) were dissolved in dimethylsulfoxide (DMSO) and kept at 4 ° C.; this stock solution was used for further dilutions in 0.5% methylcellulose. Each of rolipram and roflumilast is used in form of its free base. All injected solutions consisted of 0.5% methylcellulose with a fixed DMSO percentages (1.2%) (vehicle).
Object Location Task Studies in Rodents For the Object Location Task (OLT), doses of 0.01 mg/kg, 0.03 mg/kg and 0.1 mg/kg of Rolipram or Roflumilast or vehicle were administered subcutaneously (s.c.). Based on previous findings, PDE4 inhibitor single administration was performed 3 hours after the first trial as this has an optimum effect on object memory performance. The injection volume was 5 μl/g.
The OLT apparatus consisted of a circular arena, 40 cm in diameter. Half of the 40 cm transparent polyvinyl chloride wall was covered from the outside with white paper. Two objects were placed symmetrically about 10 cm away from the wall on the separation line, between the transparent and covered side of the arena. Four different sets of objects were available: (1) a cone made of brass (maximal diameter 6 cm and total height 3.8 cm), (2) a transparent glass bottle (diameter 2.7 cm, height 8.5 cm) filled with sand and water, (3) a massive metal cube (2.5 cm×5 cm×7.5 cm) with two holes (diameter 1.5 cm), and (4) a massive aluminum cube with a tapering top (4.5 cm×4.5 cm×8.5 cm).
A testing session comprised two trials of 4 minutes. Before each trial, mice were placed in an empty Makrolon cage (incubation cage) for the same amount of time as the trial (4 min). During the first trial (T1), two identical objects were placed symmetrically about 10 cm away from the wall on the separation line between the transparent and covered side of the arena. After the first exploration period of 4 min, the mouse was put back in its home cage. Mice then received treatment at 3 hours post T1. Subsequently, after a predetermined delay interval (24h), the mouse was placed in the apparatus for the second trial of 4 min (T2). Two identical objects as in T1 were used; one object was placed in the previously used position, whereas the other was placed in a novel position. The novel position of the object could either be a fixed distance towards the front or a fixed distance towards the back of the arena for both objects. The times spent exploring each object during T1 and T2 were recorded manually using a personal computer. All objects and locations were used in a balanced manner to exclude possible object and/or location preferences. To avoid olfactory cues, the objects were thoroughly cleaned with 70% ethanol after each trial. The testing order of conditions was determined randomly.
Statistical Data Analysis The measurements reflected the time spent by the mice in exploring each object during T1 and T2. The time spent in exploring the two identical samples in T1 were represented by ‘a1’ and ‘a2’, respectively. The time spent in exploring the sample and the new object in T2 were represented by ‘a’ and ‘b’, respectively. From these exploration times the following variables were calculated: e1, e2, and d2 (Table 1). The d2 index is a relative measure of discrimination corrected for exploratory activity. […]

[2] = system: healthy adults (18 to 35 years); test: Verbal Learning Task (VLT) in healthy adults, 18 to 35 years; type: in vivo, human
Text: The objective of this proof-of-concept study was to validate Roflumilast as cognitive enhancer using a translational behavior (i.e., cognitive testing)—EEG (i.e., brain electrical activity) approach.
Verbal Learning Task Analysis_The study utilized Verbal Learning Task (VLT) to analyze the increased number of words remembered following roflumilast administration. The VLT consisted of displaying 30 monosyllable words on a computer screen for a period of 60 seconds. Immediately after the presentation of the words on the computer screen subjects were asked to report as many words as they could recall by memory. This process (presentation and recall) was repeated further two times. In addition, 45 min and 24 h after the last presentation, subjects were again asked to report as many words as they could recall by memory. The set of three recall trials was conducted 60 minutes following administration of the roflumilast therapy.
Statistical Data Analyses Human data was analyzed using IBM SPSS Statistics version 20. General Linear Models for repeated measures were applied with the placebo condition included as contrast. Statistical outcomes for Tests of Within-Subjects Effects and
Tests of Within-Subjects Contrasts were regarded for immediate and delayed free recall scores and for the summed immediate recall score (i.e. immediate 1+immediate 2+immediate 3). The factor Treatment (4 levels; placebo, roflumilast 100 mcg, roflumilast 300 mcg and roflumilast 1000 mcg) was included as a within subjects factor. For the analysis of the EEG data, the factor Channel (5 levels; Fz, FCz, Cz, CPz, and Pz) was included as a second within subjects factor. Peak and latency values of three memory related ERP's were analysed; i.e. P300, N400 and P600. In case of significant findings (p<0.05) post-hoc t-tests were performed to reveal which of the five midline electrodes contributed to the effect.

[3] = Plasma concentration levels of roflumilast and roflumilast-N-oxide in humans; type: in vivo, human
Text: An interim analysis has been performed based on the data of 9 subjects of the Impaired Elderly group and 4 subjects of the Healthy Elderly group. For this purpose, cognitive battery test scores (VLT, SMT, Stroop task and BL-VAS) and concentrations of roflumilast and roflumilast-N-oxide in plasma have been analysed and summarized by dose over each scheduled sampling time using descriptive statistics.

## O=C(Nc1c(Cl)cncc1Cl)c1ccc(OC(F)F)c(OCC2CC2)c1 [roflumilast, N-(3,5-dichloropyridin-4-yl)-3-cyclopropylmethoxy-4-difluoromethoxybenzamide]
[1]; 0.01 mg/kg s.c.
  d2 index, discrimination index between the new and familiar objects for T2: 0.04 (0.05)
[1]; 0.03 mg/kg s.c.
  d2 index compared with the vehicle condition (post-hoc Bonferroni t-test): differed significantly from the vehicle condition
  d2 index, discrimination index between the new and familiar objects for T2: 0.34 (0.03) ###
[1]; 0.03 mg/kg s.c., after twenty-four hours
  d2 index compared with zero (one-sample t-test): significantly differed from zero
[1]; 0.1 mg/kg s.c.
  d2 index, discrimination index between the new and familiar objects for T2: 0.00 (0.06)
[1]; single subcutaneous administration of 0.01 mg/kg
  effect on spatial memory measured by the object location task test: nearly no effect
[1]; single subcutaneous administration of 0.03 mg/kg, 0.03 mg/kg
  effect on spatial memory measured by the object location task test: effective; also recorded: pronounced effect
[1]; single subcutaneous administration of 0.1 mg/kg
  effect on spatial memory measured by the object location task test: completely no effect
[2]; 100 mcg single dose, healthy volunteer study, 3rd trial
  placebo-corrected fold-improvement in VLT: 1.12
[2]; 100 mcg single dose, young volunteers, placebo 21.25
  number of words on the 3rd trial of VLT: 23.7 words
[2]; single oral dose of 100 mcg, after the third trial
  improvement in number of correct words recalled in VLT (average): 2.5 words
[3]; elderly study, interim analysis, 100, 250, 1000 mcg
  exposure (concentrations in plasma): consistent with those previously reported
[3]; humans, once a day (24 h) regimen
  steady state plasma concentration levels in once a day repeated dosing compared to once a day single dosing: about two-fold
